Several values for one entry are separate records, joined by “and”; a condition that tells them apart may be missing. Equal entries are not always repeated.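 Cultured in 96-well plates, cells were exposed to test compound for 48 hours across five concentrations. The concentration for 50% growth inhibition is given as GI50. At the TGI there is no net growth.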
system: OVCAR-4 ovarian; experiment: NCI tumour cell line growth inhibition, 48 h

Row | Structure (SMILES) | GI50 [µM] | TGI [µM]
1 | CCOC(=O)[C@@H]1CSC(CC)=C(C(=O)O)N1 | > 100 | > 100
2 | C=C1CC[C@H]2C(C)=CC[C@H]3C(=C)C(=O)O[C@@H]3[C@@H]12 |  | > 100
3 | COc1cc(OC)c2c(=O)c3cccc([N+](=O)[O-])c3n(C)c2c1 |  | > 100
4 | COc1cccc(/C=N\NC(=O)C(C)SC(C)C(=O)N/N=C/c2cccc(OC)c2)c1 (stereo not drawn) |  | 31.9
5 | O=[N+]([O-])/C=C/c1ccc(Cl)cc1[N+](=O)[O-] | 4.36 | 15
6 | CCCCCCCCCCCCCCCC[n+]1ccccc1 | 0.57 | 3.29
7 | Cc1cc(C)nc(NS(=O)(=O)c2ccc(Nc3c4ccccc4nc4c(C(=O)NCCN(C)C)cccc34)cc2)n1 |  | 11.9
8 | COc1cc2c3c(n(CCCNCCCNCCCN)c(=O)c2cc1OC)-c1cc2c(cc1C3=O)OCO2 | 6.63 | > 100
9 | COc1ccc(-c2c(N)noc2-c2cc(OC)c3c(c2)OCCO3)cc1 | 0.0847 | > 100
10 | O=C1CCC(=O)N1Sc1ccccc1 |  | > 100
11 | CCOC(=O)c1c(NC(=O)c2ccc(Cl)cc2)sc2c(CN(C)C)c(O)ccc12 | 9.85 | 71.4
12 | O=C(/C=C/c1ccccc1O)c1ccccc1Cl |  | > 100
13 | COc1ccc(/C=N/NS(=O)(=O)c2ccccc2)cc1 |  | > 100
14 | COc1ccccc1NC(=O)C1=C(C)NC(C)=C(C(=O)Nc2ccccc2OC)C1c1ccco1 |  | 88.2
15 | Cc1ccc(OC(=O)N2C/C(=C\c3ccccc3)C(=O)/C(=C/c3ccccc3)C2)cc1 |  | 32.2
16 | O=C(O)CCCCC1CCSS1 (stereo not drawn) |  | > 100
17 | O=C1C(=O)C2(CC1S(=O)(=O)c1ccccc1)c1ccccc1-c1ccccc12 (stereo not drawn) |  | > 100
18 | O=c1oc2c3ccc4ccccc4c3n(CCN3CCCCC3)c2c2ccccc12 |  | > 62
19 | O=c1cccc(Cl)[nH]1 |  | > 100
20 | Cc1ccc(S(=O)C(C)C(Cl)c2ccccc2)cc1 (stereo not drawn) |  | > 100
21 | CN1CCc2ccccc2C(C(=O)c2ccc3c(c2)OCO3)C1=O (stereo not drawn) |  | > 100
22 | Cc1cc(Cl)ccc1NC(=O)C1C(=O)N(c2ccc(Cl)cc2C)C(=O)/C1=N\NC(N)=S (stereo not drawn) |  | 69.7
23 | COc1cc(-c2nn(-c3cccc(NC(=O)CCNc4ccc(N5CCOCC5)cc4)c3)cc2-c2ccncc2)ccc1Cl | 2.6 | 16.6
24 | COc1ccc(Br)c(C(=O)N2CCc3ccccc32)c1N |  | > 100
25 | OCC(O)C(O)C(O)c1nn(-c2ccc(F)cc2)c2nc3cc(Cl)c(Cl)cc3nc12 (stereo not drawn) |  | > 100
26 | COc1ccc(C2Cc3cc(OC)c(OC)c(OC)c3C2)cc1 (stereo not drawn) |  | > 100

system: HT29 colon; experiment: NCI tumour cell line growth inhibition, 48 h

Row | Structure (SMILES) | GI50 | TGI
27 | CS(=O)(=O)Nc1cc(-c2ccc3ncnc(Nc4cccc(Cl)c4)c3c2)cnc1Cl | 0.319 µM | 5.84 µM
28 | CC1(C)OC(=O)C(=C2CCC(C(=O)Nc3cccc(C(F)(F)F)c3)N2)C(=O)O1 (stereo not drawn) |  | > 100 µM
29 | CN(C)CCN1CCc2c([nH]c3ccccc23)C1c1cccnc1 (stereo not drawn) |  | > 100 µM
30 | CCN(c1ccccc1)[C@H]1C(=O)N(c2ccc([N+](=O)[O-])cc2)[C@H]1c1ccc(OC)cc1 |  | > 100 µM
31 | COc1ccc(/C=C\c2cc(OC)c(OC)c(OC)c2)cc1 |  | 13.6 µM
32 | COc1cc2cc(Oc3cccc(NC(=O)Nc4cc(C(F)(F)F)cc(C(F)(F)F)c4)c3)c(C)nc2cc1OC | 1.52 µM | 3.46 µM
33 | CCOC(=O)[C@@H]1CSC(CC)=C(C(=O)O)N1 | > 100 µM | > 100 µM
34 | COc1cc(N(C)C)c(OC)cc1C=C1C=CC=C1 |  | > 100 µM
35 | C[C@H]1CC[P+](C)(c2ccccc2)C1 (stereo partly drawn) |  | > 100 µM
36 | C=C1CC[C@H]2C(C)=CC[C@H]3C(=C)C(=O)O[C@@H]3[C@@H]12 |  | > 100 µM
37 | COc1cc(OC)c2c(=O)c3cccc([N+](=O)[O-])c3n(C)c2c1 |  | > 100 µM
38 | COc1cccc(/C=N\NC(=O)C(C)SC(C)C(=O)N/N=C/c2cccc(OC)c2)c1 (stereo not drawn) |  | > 100 µM
39 | COc1ccc(-c2csc(Nc3cccc(-c4csc(C)n4)c3)n2)cc1 | 2.57 µM | > 50 µM
40 | COc1cc(/C=C2\SC(N3CCCCC3)=NC2=O)ccc1OCCCCCCOc1ccc(/C=C2\SC(N3CCCCC3)=NC2=O)cc1OC | 8.38 µM | 30.4 µM
41 | CCCCCCCCCCCCCCCC[n+]1ccccc1 | 0.199 µM and 0.25 µM | 0.765 µM and 1.26 µM
42 | Cc1cc(C)nc(NS(=O)(=O)c2ccc(Nc3c4ccccc4nc4c(C(=O)NCCN(C)C)cccc34)cc2)n1 |  | 14.3 µM
43 | COc1cc2c3c(n(CCCNCCCNCCCN)c(=O)c2cc1OC)-c1cc2c(cc1C3=O)OCO2 | 48.6 µM | > 100 µM
44 | COc1ccc(-c2c(N)noc2-c2cc(OC)c3c(c2)OCCO3)cc1 | < 0.01 µM | 0.823 µM
45 | CCOC(=O)c1c(NC(=O)c2ccc(Cl)cc2)sc2c(CN(C)C)c(O)ccc12 | 2.48 µM | 7.13 µM

Row | Structure (SMILES) | GI50 | TGI
46 | O=C(/C=C/c1ccccc1O)c1ccccc1Cl |  | > 100 µM
47 | CCCCC1(C(NC(=O)c2ccccc2Cl)c2ccncc2)C(=O)N(c2ccccc2)N(c2ccccc2)C1=O (stereo not drawn) |  | > 100 µM
48 | COc1ccc(/C=N/NS(=O)(=O)c2ccccc2)cc1 |  | > 100 µM
49 | COc1ccccc1NC(=O)C1=C(C)NC(C)=C(C(=O)Nc2ccccc2OC)C1c1ccco1 |  | 14.7 µM
50 | C1=CC2CCC1CN2CCC1CNc2ccccc21 (stereo not drawn) |  | > 100 µM
51 | Cc1ccc(OC(=O)N2C/C(=C\c3ccccc3)C(=O)/C(=C/c3ccccc3)C2)cc1 |  | 35.6 µM
52 | O=C(O)CCCCC1CCSS1 (stereo not drawn) |  | > 100 µM
53 | O=C1C(=O)C2(CC1S(=O)(=O)c1ccccc1)c1ccccc1-c1ccccc12 (stereo not drawn) |  | 59.7 µM
54 | O=c1oc2c3ccc4ccccc4c3n(CCN3CCCCC3)c2c2ccccc12 |  | 53.4 µM
55 | O=c1cccc(Cl)[nH]1 |  | > 100 µM
56 | Cc1ccc(S(=O)C(C)C(Cl)c2ccccc2)cc1 (stereo not drawn) |  | > 100 µM
57 | CN1CCc2ccccc2C(C(=O)c2ccc3c(c2)OCO3)C1=O (stereo not drawn) |  | > 100 µM
58 | Cc1cc(Cl)ccc1NC(=O)C1C(=O)N(c2ccc(Cl)cc2C)C(=O)/C1=N\NC(N)=S (stereo not drawn) |  | 35.4 µM
59 | COc1cc(-c2nn(-c3cccc(NC(=O)CCNc4ccc(N5CCOCC5)cc4)c3)cc2-c2ccncc2)ccc1Cl | 2.84 µM | 33.4 µM
60 | COc1ccc(Br)c(C(=O)N2CCc3ccccc32)c1N |  | > 100 µM
61 | COc1ccc(C)cc1NC(=S)C#N |  | > 100 µM
62 | Cc1ccc2ccc(-c3ccccc3)c3c2c1C(=O)c1ccccc1C3=O |  | > 100 µM
63 | OCC(O)C(O)C(O)c1nn(-c2ccc(F)cc2)c2nc3cc(Cl)c(Cl)cc3nc12 (stereo not drawn) |  | > 100 µM
64 | COc1ccc(C2Cc3cc(OC)c(OC)c(OC)c3C2)cc1 (stereo not drawn) |  | 79.6 µM

system: TK-10 renal; experiment: NCI tumour cell line growth inhibition, 48 h

Row | Structure (SMILES) | TGI | GI50
65 | CC1(C)OC(=O)C(=C2CCC(C(=O)Nc3cccc(C(F)(F)F)c3)N2)C(=O)O1 (stereo not drawn) | > 100 µM | 
66 | CN(C)CCN1CCc2c([nH]c3ccccc23)C1c1cccnc1 (stereo not drawn) | > 100 µM | 
67 | CN(C)c1ccc(C(O)C2=CC(=O)c3ccccc3C2=O)cc1 (stereo not drawn) | 44.3 µM | 12.1 µM
68 | CCN(c1ccccc1)[C@H]1C(=O)N(c2ccc([N+](=O)[O-])cc2)[C@H]1c1ccc(OC)cc1 | > 100 µM | 
69 | COc1cc2cc(Oc3cccc(NC(=O)Nc4cc(C(F)(F)F)cc(C(F)(F)F)c4)c3)c(C)nc2cc1OC | 9.18 µM | 2.32 µM
70 | CCOC(=O)[C@@H]1CSC(CC)=C(C(=O)O)N1 | > 100 µM | > 100 µM
71 | COc1cc(N(C)C)c(OC)cc1C=C1C=CC=C1 | > 100 µM | 
72 | C[C@H]1CC[P+](C)(c2ccccc2)C1 (stereo partly drawn) | > 100 µM | 
73 | C=C1CC[C@H]2C(C)=CC[C@H]3C(=C)C(=O)O[C@@H]3[C@@H]12 | > 100 µM | 
74 | COc1cc(OC)c2c(=O)c3cccc([N+](=O)[O-])c3n(C)c2c1 | > 100 µM | 
75 | COc1cccc(/C=N\NC(=O)C(C)SC(C)C(=O)N/N=C/c2cccc(OC)c2)c1 (stereo not drawn) | 36.6 µM | 
76 | O=[N+]([O-])/C=C/c1ccc(Cl)cc1[N+](=O)[O-] | 3.48 µM | 1.78 µM
77 | COc1ccc(-c2csc(Nc3cccc(-c4csc(C)n4)c3)n2)cc1 | > 50 µM | 5.04 µM
78 | COc1cc(/C=C2\SC(N3CCCCC3)=NC2=O)ccc1OCCCCCCOc1ccc(/C=C2\SC(N3CCCCC3)=NC2=O)cc1OC | 27.9 µM | 11.5 µM
79 | CCCCCCCCCCCCCCCC[n+]1ccccc1 | 0.518 µM and 1.66 µM | 0.207 µM and 0.432 µM
80 | Cc1cc(C)nc(NS(=O)(=O)c2ccc(Nc3c4ccccc4nc4c(C(=O)NCCN(C)C)cccc34)cc2)n1 | 27.7 µM | 
81 | COc1cc2c3c(n(CCCNCCCNCCCN)c(=O)c2cc1OC)-c1cc2c(cc1C3=O)OCO2 | > 100 µM | > 100 µM
82 | COc1ccc(-c2c(N)noc2-c2cc(OC)c3c(c2)OCCO3)cc1 | > 56.6 µM | 0.562 µM

Reference: PubChem BioAssay (NCI)
